This note sets out measurements from US11697648B2, “Fused pyrimidine pyridinone compounds as JAK inhibitors” (THERAVANCE BIOPHARMA R&D IP, LLC, priority 2019, dated 2023).

Each structure is given as a SMILES string.

The target in assay [1] is JAK2 (Homo sapiens (Human), UniProt O60674). Nature of the assay: Biochemical JAK2 kinase assay (LanthaScreen). The gist of the method: (§1)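 GST-JAK + GFP-STAT1 peptide, HEPES pH 7.5/MgCl2/EGTA/Brij-35 buffer; cpd preincubation 1 h RT; ATP start, 1 h RT; stop with 10 mM EDTA + 2 nM Tb-anti-pSTAT1; TR-FRET 520/495. 4-parameter IC50 → pKi (Cheng-Prusoff).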
For orientation: Time-resolved FRET reads energy transfer from a long-lived donor to a nearby acceptor.

For assay [2], the target named is Tyk2 (Homo sapiens (Human), UniProt P29597). Nature of the assay: Biochemical Tyk2 kinase assay (LanthaScreen). The gist of the method: as §1
Assay [3] concerns the target JAK3 (Homo sapiens (Human), UniProt P52333). Nature of the assay: Biochemical JAK3 kinase assay (LanthaScreen). The gist of the method: as §1
Assay [4] has as its system IL-2 stimulated STAT5 phosphorylation in Tall-1 human T cell line (JAK3). Description: Cellular JAK3 potency assay: inhibition of IL-2 stimulated pSTAT5 in Tall-1 T cells. Type of assay: cell-based. The gist of the method: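 Tall-1 cells, 45,000 per well, preincubated 1 hour with compound at 37 °C, then stimulated 30 minutes with IL-2 at 300 ng/ml final. pSTAT5 (Tyr694/699) in lysates quantified by AlphaLISA SureFire Ultra. pIC50 derived from inhibition curves, given as mean with SD.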

The target in assay [5] is JAK1 (Homo sapiens (Human), UniProt P23458). Description: Biochemical JAK1 kinase assay (LanthaScreen). The gist of the method:
as §1

[6] abbreviates: selectivity JAK3 over JAK1, difference of pKi.
Setting [7] is: IL-2 stimulated pSTAT5, Tall-1 T cells.
Setting [8] is: selectivity, difference of pKi values.
[9] abbreviates: IL-2 stimulated pSTAT5 in Tall-1 T cells.

Chain of JAK1 (P23458 whole entry): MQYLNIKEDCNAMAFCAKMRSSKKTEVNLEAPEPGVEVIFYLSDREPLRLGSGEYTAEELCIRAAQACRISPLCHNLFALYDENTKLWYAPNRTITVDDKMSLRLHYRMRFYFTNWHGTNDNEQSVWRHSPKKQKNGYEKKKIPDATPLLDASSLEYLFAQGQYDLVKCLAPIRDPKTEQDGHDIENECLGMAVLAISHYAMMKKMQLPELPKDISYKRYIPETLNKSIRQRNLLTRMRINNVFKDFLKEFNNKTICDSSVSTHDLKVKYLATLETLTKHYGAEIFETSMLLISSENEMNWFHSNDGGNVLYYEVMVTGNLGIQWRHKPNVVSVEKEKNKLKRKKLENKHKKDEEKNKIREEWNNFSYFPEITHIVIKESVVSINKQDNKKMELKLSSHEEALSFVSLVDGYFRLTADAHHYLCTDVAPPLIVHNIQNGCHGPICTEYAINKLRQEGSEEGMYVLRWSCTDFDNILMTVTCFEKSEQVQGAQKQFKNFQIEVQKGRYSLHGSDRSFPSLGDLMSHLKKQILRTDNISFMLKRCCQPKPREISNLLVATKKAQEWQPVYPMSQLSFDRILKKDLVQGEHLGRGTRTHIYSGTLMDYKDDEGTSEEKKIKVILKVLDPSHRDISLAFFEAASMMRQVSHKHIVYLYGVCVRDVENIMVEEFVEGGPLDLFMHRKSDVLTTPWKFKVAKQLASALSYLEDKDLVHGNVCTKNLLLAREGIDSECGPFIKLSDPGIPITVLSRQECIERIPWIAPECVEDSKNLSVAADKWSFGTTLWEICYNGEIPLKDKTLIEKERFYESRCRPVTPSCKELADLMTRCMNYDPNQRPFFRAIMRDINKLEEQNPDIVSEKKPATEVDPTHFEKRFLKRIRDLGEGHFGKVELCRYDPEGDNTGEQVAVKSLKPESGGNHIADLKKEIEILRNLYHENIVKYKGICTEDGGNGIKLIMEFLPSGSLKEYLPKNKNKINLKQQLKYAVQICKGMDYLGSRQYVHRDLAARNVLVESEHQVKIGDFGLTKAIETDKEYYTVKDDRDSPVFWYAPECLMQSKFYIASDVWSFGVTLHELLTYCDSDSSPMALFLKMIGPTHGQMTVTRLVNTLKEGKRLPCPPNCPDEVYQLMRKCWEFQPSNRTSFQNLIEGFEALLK
Chain of JAK3 (P52333 whole entry): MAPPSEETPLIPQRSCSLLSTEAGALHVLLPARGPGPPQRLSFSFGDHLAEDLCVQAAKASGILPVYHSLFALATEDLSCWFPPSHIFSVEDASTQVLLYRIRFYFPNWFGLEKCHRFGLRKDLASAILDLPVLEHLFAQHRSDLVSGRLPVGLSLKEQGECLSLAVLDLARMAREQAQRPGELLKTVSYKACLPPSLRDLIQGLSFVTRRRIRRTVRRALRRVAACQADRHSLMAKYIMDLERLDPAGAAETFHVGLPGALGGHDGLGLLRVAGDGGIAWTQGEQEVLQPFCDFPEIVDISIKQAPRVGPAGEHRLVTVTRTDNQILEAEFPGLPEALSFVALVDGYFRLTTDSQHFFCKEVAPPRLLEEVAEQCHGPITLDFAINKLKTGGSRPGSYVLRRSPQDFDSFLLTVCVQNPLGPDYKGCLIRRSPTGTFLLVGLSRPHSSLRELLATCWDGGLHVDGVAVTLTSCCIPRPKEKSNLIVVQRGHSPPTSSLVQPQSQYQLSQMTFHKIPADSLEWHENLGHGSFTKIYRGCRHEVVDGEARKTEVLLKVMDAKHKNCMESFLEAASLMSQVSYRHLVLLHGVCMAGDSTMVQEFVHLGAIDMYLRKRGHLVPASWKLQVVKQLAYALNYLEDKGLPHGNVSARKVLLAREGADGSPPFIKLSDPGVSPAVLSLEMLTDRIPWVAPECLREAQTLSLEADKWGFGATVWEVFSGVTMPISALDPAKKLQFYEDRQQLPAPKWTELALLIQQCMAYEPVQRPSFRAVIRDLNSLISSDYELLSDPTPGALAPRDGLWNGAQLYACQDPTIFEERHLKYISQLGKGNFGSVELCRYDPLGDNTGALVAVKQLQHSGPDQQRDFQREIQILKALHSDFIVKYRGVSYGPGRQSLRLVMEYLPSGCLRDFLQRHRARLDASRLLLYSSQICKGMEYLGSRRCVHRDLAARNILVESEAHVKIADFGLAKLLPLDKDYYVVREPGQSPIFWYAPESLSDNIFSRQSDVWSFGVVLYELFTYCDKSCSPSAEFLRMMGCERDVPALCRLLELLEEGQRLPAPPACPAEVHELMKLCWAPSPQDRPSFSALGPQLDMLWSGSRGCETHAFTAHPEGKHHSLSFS
Chain of JAK2 (O60674 whole entry): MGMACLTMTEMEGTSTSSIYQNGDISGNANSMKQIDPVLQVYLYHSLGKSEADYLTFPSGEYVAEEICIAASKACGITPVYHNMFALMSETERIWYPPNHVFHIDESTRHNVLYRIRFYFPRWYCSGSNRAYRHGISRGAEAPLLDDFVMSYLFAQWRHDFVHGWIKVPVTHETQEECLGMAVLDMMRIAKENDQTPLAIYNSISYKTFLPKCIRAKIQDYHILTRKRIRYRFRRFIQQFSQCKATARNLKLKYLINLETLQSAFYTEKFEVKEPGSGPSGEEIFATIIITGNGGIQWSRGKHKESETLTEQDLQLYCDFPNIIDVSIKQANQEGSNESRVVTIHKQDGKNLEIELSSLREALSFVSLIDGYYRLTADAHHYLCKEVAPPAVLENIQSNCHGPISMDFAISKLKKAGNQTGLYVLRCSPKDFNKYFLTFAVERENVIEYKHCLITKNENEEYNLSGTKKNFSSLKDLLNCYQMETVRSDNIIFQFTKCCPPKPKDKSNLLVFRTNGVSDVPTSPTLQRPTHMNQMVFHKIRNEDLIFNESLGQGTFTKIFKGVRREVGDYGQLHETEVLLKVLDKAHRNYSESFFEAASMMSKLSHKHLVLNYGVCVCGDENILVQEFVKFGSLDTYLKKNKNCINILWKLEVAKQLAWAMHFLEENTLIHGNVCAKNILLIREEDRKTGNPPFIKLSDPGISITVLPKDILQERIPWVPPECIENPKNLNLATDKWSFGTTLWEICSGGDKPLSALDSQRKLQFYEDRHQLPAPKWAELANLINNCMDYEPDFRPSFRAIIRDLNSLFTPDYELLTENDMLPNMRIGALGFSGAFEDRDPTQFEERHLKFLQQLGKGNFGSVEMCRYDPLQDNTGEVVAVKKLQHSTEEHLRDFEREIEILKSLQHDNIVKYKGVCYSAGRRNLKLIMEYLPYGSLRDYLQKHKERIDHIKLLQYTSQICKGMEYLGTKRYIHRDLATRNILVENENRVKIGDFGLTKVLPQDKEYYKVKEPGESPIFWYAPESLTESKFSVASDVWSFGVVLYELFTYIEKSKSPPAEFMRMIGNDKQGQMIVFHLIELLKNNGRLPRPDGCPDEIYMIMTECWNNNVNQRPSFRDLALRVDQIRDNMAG
Chain of Tyk2 (P29597 whole entry): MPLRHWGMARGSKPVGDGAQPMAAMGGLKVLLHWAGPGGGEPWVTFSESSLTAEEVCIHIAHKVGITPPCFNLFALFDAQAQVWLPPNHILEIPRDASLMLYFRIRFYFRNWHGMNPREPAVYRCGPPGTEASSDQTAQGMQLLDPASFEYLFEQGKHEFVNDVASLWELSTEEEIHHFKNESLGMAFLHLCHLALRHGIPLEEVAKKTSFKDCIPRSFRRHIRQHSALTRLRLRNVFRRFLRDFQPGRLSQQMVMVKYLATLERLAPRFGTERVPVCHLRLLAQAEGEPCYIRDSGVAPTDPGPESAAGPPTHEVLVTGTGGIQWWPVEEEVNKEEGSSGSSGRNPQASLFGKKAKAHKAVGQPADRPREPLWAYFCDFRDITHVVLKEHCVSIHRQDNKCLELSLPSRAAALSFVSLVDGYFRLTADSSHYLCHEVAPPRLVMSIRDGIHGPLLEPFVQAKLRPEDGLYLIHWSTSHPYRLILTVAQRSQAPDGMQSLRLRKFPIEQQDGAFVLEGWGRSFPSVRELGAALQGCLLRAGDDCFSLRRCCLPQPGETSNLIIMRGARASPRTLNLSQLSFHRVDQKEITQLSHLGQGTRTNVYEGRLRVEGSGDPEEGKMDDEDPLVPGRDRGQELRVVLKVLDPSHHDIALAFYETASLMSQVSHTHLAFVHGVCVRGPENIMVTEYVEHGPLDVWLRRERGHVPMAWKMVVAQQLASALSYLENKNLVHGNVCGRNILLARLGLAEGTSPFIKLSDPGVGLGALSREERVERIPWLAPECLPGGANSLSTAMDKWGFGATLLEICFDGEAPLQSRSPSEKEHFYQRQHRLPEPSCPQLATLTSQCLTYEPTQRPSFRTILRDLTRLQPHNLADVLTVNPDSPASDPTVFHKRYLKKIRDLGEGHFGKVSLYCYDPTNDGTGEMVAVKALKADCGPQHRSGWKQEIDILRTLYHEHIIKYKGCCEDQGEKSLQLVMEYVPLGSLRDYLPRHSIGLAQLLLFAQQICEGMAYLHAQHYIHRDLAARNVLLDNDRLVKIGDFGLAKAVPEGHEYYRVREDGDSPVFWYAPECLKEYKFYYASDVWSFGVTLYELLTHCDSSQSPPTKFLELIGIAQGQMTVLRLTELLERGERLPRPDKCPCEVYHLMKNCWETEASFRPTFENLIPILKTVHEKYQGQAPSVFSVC

`C=CC(=O)N1CCN(CCn2c(=O)ccc3cnc(Nc4cnn(-c5ccccc5)c4)nc32)[C@@H](C)C1` [Example 235]: in assay [1], the “JAK 2 (pKi)” value is recorded as “E (E represents a pKi value of 7 or below (Ki of 100 nM or above))”. Moreover, the “Tyk 2 (pKi)” value in assay [2] was “E (E represents a pKi value of 7 or below (Ki of 100 nM or above))”. In addition, the “JAK 3 (pKi)” value in assay [3] was “B (B represents pKi value between 9 and 10 (Ki between 1 nM and 0.1 nM))”. In assay [3] (setting [6]), the “JAK3 (pKi)-JAK1 (pKi)” value was “A (A represents a value of 3 or above)”. Besides, the “Tall-1 (pIC50)” value in assay [4] (setting [7]) is “B (B represents a pC50 value between 6.7 (included) and 7.5 (IC50 between 200 nM and 32 nM))”. Besides, the “JAK 1 (pKi)” value in assay [5] was “E (E represents a pKi value of 7 or below (Ki of 100 nM or above))”.
Regarding `C=CC(=O)N1CCN(CCn2c(=O)ccc3cnc(Nc4cnn(CCF)c4)nc32)[C@@H](C)C1` [Example 236], the “JAK 2 (pKi)” value in assay [1] is listed as “E (E represents a pKi value of 7 or below (Ki of 100 nM or above))”. For the same compound, the “Tyk 2 (pKi)” value in assay [2] was “E (E represents a pKi value of 7 or below (Ki of 100 nM or above))”. In assay [3], the “JAK 3 (pKi)” value is “B (B represents pKi value between 9 and 10 (Ki between 1 nM and 0.1 nM))”. Moreover, the “JAK3 (pKi)-JAK1 (pKi)” value in assay [3] (setting [6]) was “A (A represents a value of 3 or above)”. In assay [4] (setting [7]), the “Tall-1 (pIC50)” value was “B (B represents a pC50 value between 6.7 (included) and 7.5 (IC50 between 200 nM and 32 nM))”. Also, the “JAK 1 (pKi)” value in assay [5] was “E (E represents a pKi value of 7 or below (Ki of 100 nM or above))”.
Take `C=CC(=O)N1CCN(CCn2c(=O)ccc3cnc(Nc4cnn(Cc5ccccc5)c4)nc32)[C@@H](C)C1` [Example 237]: the “JAK 2 (pKi)” value in assay [1] is “E (E represents a pKi value of 7 or below (Ki of 100 nM or above))”. For the same compound, the “Tyk 2 (pKi)” value in assay [2] is reported as “E (E represents a pKi value of 7 or below (Ki of 100 nM or above))”. In assay [3], the “JAK 3 (pKi)” value was “B (B represents pKi value between 9 and 10 (Ki between 1 nM and 0.1 nM))”. Moreover, the “JAK3 (pKi)-JAK1 (pKi)” value in assay [3] (setting [8]) is “A (A represents a value of 3 or above)”. In addition, the “Tall-1 (pIC50)” value in assay [4] (setting [9]) is “B (B represents a pC50 value between 6.7 (included) and 7.5 (IC50 between 200 nM and 32 nM))”. Moreover, the “JAK 1 (pKi)” value in assay [5] is on record as “E (E represents a pKi value of 7 or below (Ki of 100 nM or above))”.
On to `C=CC(=O)N1CCN(CCn2c(=O)ccc3cnc(Nc4cnn(CCOC(F)F)c4)nc32)[C@@H](C)C1` [Example 238], for which the “JAK 2 (pKi)” value in assay [1] is listed as “E (E represents a pKi value of 7 or below (Ki of 100 nM or above))”. For the same compound, the “Tyk 2 (pKi)” value in assay [2] is recorded as “E (E represents a pKi value of 7 or below (Ki of 100 nM or above))”. Further, the “JAK 3 (pKi)” value in assay [3] is “B (B represents pKi value between 9 and 10 (Ki between 1 nM and 0.1 nM))”. Besides, in assay [3] (setting [8]), the “JAK3 (pKi)-JAK1 (pKi)” value is recorded as “A (A represents a value of 3 or above)”. The “Tall-1 (pIC50)” value in assay [4] (setting [9]) is “C (C represents a pIC50 value between 6 and 6.7 (IC50 between 1 μM and 200 nM))”. Besides, the “JAK 1 (pKi)” value in assay [5] was “E (E represents a pKi value of 7 or below (Ki of 100 nM or above))”.
Consider `C=CC(=O)N1CC(CCn2c(=O)ccc3cnc(Nc4cnn(Cc5ccccc5)c4)nc32)C1` [Example 239], for which the “JAK 2 (pKi)” value in assay [1] is “E (E represents a pKi value of 7 or below (Ki of 100 nM or above))”. Moreover, the “Tyk 2 (pKi)” value in assay [2] is “E (E represents a pKi value of 7 or below (Ki of 100 nM or above))”. Moreover, in assay [3], the “JAK 3 (pKi)” value is “B (B represents pKi value between 9 and 10 (Ki between 1 nM and 0.1 nM))”. The “JAK3 (pKi)-JAK1 (pKi)” value in assay [3] (setting [8]) is on record as “A (A represents a value of 3 or above)”. Further, the “Tall-1 (pIC50)” value in assay [4] (setting [9]) is “B (B represents a pC50 value between 6.7 (included) and 7.5 (IC50 between 200 nM and 32 nM))”. The “JAK 1 (pKi)” value in assay [5] is listed as “E (E represents a pKi value of 7 or below (Ki of 100 nM or above))”.
Take `C=CC(=O)N1CC(CCn2c(=O)ccc3cnc(Nc4ccc(N5CCN(C)C(C)(C)C5)cc4)nc32)C1` [Example 240]: the “JAK 2 (pKi)” value in assay [1] was “E (E represents a pKi value of 7 or below (Ki of 100 nM or above))”. Moreover, the “Tyk 2 (pKi)” value in assay [2] is given as “E (E represents a pKi value of 7 or below (Ki of 100 nM or above))”. Moreover, the “JAK 3 (pKi)” value in assay [3] is on record as “A (A represents a pKi value≥10 (Ki≤0.1 nM))”. Besides, the “JAK3 (pKi)-JAK1 (pKi)” value in assay [3] (setting [8]) is reported as “A (A represents a value of 3 or above)”. The “Tall-1 (pIC50)” value in assay [4] (setting [9]) is given as “A (A represents a pIC50 value≥7.5 (IC50≤32 nM))”. Besides, the “JAK 1 (pKi)” value in assay [5] is on record as “E (E represents a pKi value of 7 or below (Ki of 100 nM or above))”.
